Laboratory results published in US6812037B1, “Antimitotic compounds” (The University of British Columbia, priority 1999, dated 2004).

What was measured:
MCF-7 cells [1] = experiment: ELICA of mitotic cells (Enzyme-Linked Immuno-Cytochemical assay, TG-3 antibody); format: cell-based, human
Description: (§1) Cell Culture and Treatment. Human breast carcinoma MCF-7 cells were cultured as monolayers. The cells were seeded at 10,000 per well of 96-well polystyrene tissue culture plates (Falcon) in 200 μl medium and were allowed to grow overnight. Crude extracts of marine organisms were then added at about 10 μg/ml or 1 μg/ml, from 1000-fold stocks in dimethylsulfoxide (DMSO). Untreated samples received an equivalent amount of DMSO and several as negative controls. Cells treated with 100 ng/ml nocodazole (Sigma), from a 1000-fold stock in DMSO, served as positive controls. Cells were incubated for 16-20 hours. The relative number of cells in mitosis was then determined by microscopy, by enzyme-linked immunosorbent assay (ELISA) or by an enzyme-linked cytochemical assay (ELICA), as described below.
ELICA of Miltotic Cells. While the ELISA is accurate and reliable, it requires transferring cell lysates to ELISA plates and many solution changes. The assay of this invention is faster and easier to use for drug screening. […] In a preferred assay of this invention, cells are fixed with formaldehyde in their microtiter culture plates and permeabilized with methanol and detergents. The TG-3 primary antibody and HRP-conjugated secondary antibody may be added sequentially but are preferably added simultaneously. Colorimetric detection of HRP activity remains unchanged. This new assay is termed: an Enzyme-Linked Immuno-Cytochemical assay (ELICA).
After incubation with marine extracts, the medium was withdrawn carefully using a pipetor and 100 μl of 10 mM Tris-HCl (pH 7.4) 150 mM NaCl, containing 3.7% formaldehyde was added to fix the cells for 30 minutes at 4° C. The fixative was removed and replaced with 100 μl of cold (−20° C.) methanol for 5 minutes to permeabilize the fixed cells. The methanol was removed and the wells were rinsed briefly with 200 μl antibody buffer. Then, 100 μl antibody buffer containing 0.1-0.15 μg/ml TG-3 monoclonal antibody and HRP-conjugated goat anti-mouse IgM secondary antibody at a 50-fold dilution, was added to 16-20 hours at 4° C. The plates were washed twice with 200 μl 10 mM Tris-HCl pH 7.4, 0.02% Tween 20™. Then, 100 μl of 120 mM Na2HPO4, 100 mM citric acid (pH 4.0) containing […] 2,2′-azino-bis(-3ethylbenz-thiazoline-6-sulfonic acid) and 0.01% hydrogen peroxide was added for 1 hour at room temperature and the absorbance at 405 nm was measured.

MCF-7 cells [2] = experiment: Mitotic arrest of MCF-7 cells, counting mitotic cells by microscopy (mitotic spreads); format: cell-based, human
Description: as §1
Screens for Antimitotic Agents. MCF-7 cells were incubated for 20 hours with different concentrations of the antimitotic drug paclitaxel, and the proportion of cells arrested in mitosis was measured by counting mitotic cells in the microscope, and by ELISA. Paclitaxel induced mitotic arrest in a concentration-dependent manner with half-maximal activity at 10 nM measured by microscopy (FIG. 1A) and at 4 nM measured by ELISA (FIG. 1B, □)
Further comparison of the antimitotic activities of eleutherobin and desmethyleleutherobin was done using microscopic examination of a standard cell spread.

MCF-7 cells [3] = experiment: ELISA of mitotic cells (TG-3 antibody); format: cell-based, human
Description: TG-3 also recognizes mitotic cells in EUISA. In the ELISA assay, the cells may be grown in multi-well plates, lysed and transferred to protein-binding ELISA plates for adsorption to the plastic surface. The antigen may be detected by incubating with TG-3 antibody, an HRP-conjugated secondary antibody and performing a calorimetric determination of HRP activity.
as §1, with “Cells treated with 100 ng/ml nocodazole (Sigma), from a 1000-fold stock in DMSO, served as positive controls. Cells were incubated for 16-20 hours.” left out
ELISA of Mitotic Cells. […] Finally, 100 μl of 120 mM Na2HPO4, 100 mM citric acid (pH 4.0) containing 0.5 μg/ml 2,2′-azino-bis (3-ethyl-benzthiazoline-6-sulfonic acid) and 0.01% hydrogen peroxide was added for 1 hour at room temperature and absorbance at 405 nm was determined using a Dynex MRX™ plate reader.

[4] = test system: SCCVII squamous cell carcinoma; experiment: In vivo antimitotic/anticancer activity, tumor cell survival by colony formation; design: species or system C3H mice
Description: In Vivo Antimitotic/Anticancer Activity. C3H mice of approximately 26 g bearing SCCVII squamous cell carcinoma (tumor size approximately 0.45 g) were injected intraperitoneally with desmethyleleutherobin. 24 hours later, the mice were intravenously injected with Hoechst 33342™ and then sacrificed. The tumors were removed and single cell suspensions prepared and sorted on the basis of a concentration gradient of Hoechst 33342™, to provide cells sorted according to varying distance from the blood supply. The cells were plated and survival analyzed by observing colony formation.

MCF-7 cells [5] = experiment: Western blot with TG-3 antibody, densitometric scanning of the 105-kDa band; format: cell-based, human; conditions: cells treated for 20 hours with nocodazole vs cycling MCF-7 cells
Description: The TG-3 monoclonal antibody, originally described as a marker of Alzheimer's disease, is highly specific for mitotic cells. […] In Western blots, the antibody reacts with a 105-kDa protein identified as a mitotically phosphorylated form of nucleolin, that is present in abundance in extracts of cells treated for 20 hours with the antimitotic agent nocodazole but present at only low levels in extracts from cycling MCF-7 cells. Densitometric scanning of the bands on Western blots in these examples show a 27-fold difference in intensity between nocodazole-treated and untreated cells, corresponding well to the difference in the number of mitotic cells in the two samples: 80% for the nocodazole-treated sample and 3% for the untreated sample, as measured by microscopy.

[6] = MCF-7 cells, FIG. 2, read-out: IC50, antimitotic activity as determined by ELICA

`CO[C@]12C=C[C@](C)(O1)[C@@H](OC(=O)/C=C/c1cn(C)cn1)C[C@@H]1[C@H](/C=C\2CO[C@@H]2OC[C@@H](O)[C@@H](O)[C@@H]2OC(C)=O)[C@@H](C(C)C)C=C[C@@]1(C)O` [caribaeoside] was tested, and the IC50 (MCF-7 cells [1]; [6]) was roughly 20000 nM.
`CO[C@]12C=C[C@](C)(O1)[C@@H](OC(=O)/C=C/c1cn(C)cn1)C[C@H]1C(C)=CC[C@H](C(C)C)[C@H]1/C=C\2COC1OCC(O)C(O)C1OC(C)=O` (stereo partly drawn) [eleutherobin] showed an IC50 (MCF-7 cells [2]; Homo sapiens, MCF7, read-out: IC50, antimitotic activity by microscopic examination of a standard cell spread) of roughly 200 nM and an IC50 (MCF-7 cells [1]; Homo sapiens, MCF7, read-out: IC50, antimitotic activity as determined by ELICA) of roughly 100 nM.
With caribaeolin the IC50 (MCF-7 cells [1]; [6]) was roughly 20000 nM.
`CO[C@]12C=C[C@](C)(O1)[C@@H](OC(=O)/C=C/c1cn(C)cn1)C[C@H]1C(C)=CC[C@H](C(C)C)[C@H]1/C=C\2CO[C@@H]1OC[C@@H](O)[C@@H](OC(C)=O)[C@@H]1O` [isoeleutherobin A] showed an IC50 (MCF-7 cells [1]; [6]) of roughly 50 nM.
`CO[C@]12C=C[C@](C)(O1)[C@@H](OC(=O)/C=C\c1cn(C)cn1)C[C@H]1C(C)=CC[C@H](C(C)C)[C@H]1/C=C\2CO[C@@H]1OC[C@@H](O)[C@@H](O)[C@@H]1OC(C)=O` [Z-eleutherobin] gave an IC50 (MCF-7 cells [1]; [6]) of roughly 250 nM.
WF-1360 [Compound A] was tested, and the IC50 (MCF-7 cells [3]; read-out: half-maximal antimitotic activity (IC50) as determined by ELISA) was 52 nM.
Work on `COC(=O)/C1=C/[C@@H]2[C@@H](C(C)C)CC=C(C)[C@@H]2C[C@H](OC(=O)/C=C/c2cn(C)cn2)[C@]2(C)C=C[C@@]1(O)O2` [Sarcodictyin A, sarcodictyin A] yielded an IC50 (MCF-7 cells [1]; [6]) of roughly 2000 nM.
desacetyleleutherobin gave an IC50 (MCF-7 cells [1]; [6]) of roughly 400 nM.
With `CC(=O)O[C@@H]1[C@H](OC/C2=C/[C@@H]3[C@@H](C(C)C)CC=C(C)[C@@H]3C[C@H](OC(=O)/C=C/c3cn(C)cn3)[C@]3(C)C=C[C@@]2(O)O3)OC[C@@H](O)[C@H]1O` [desmethyleleutherobin] the IC50 (MCF-7 cells [2]; MCF-7 cells, FIG. 4, read-out: IC50, antimitotic activity by microscopic examination of a standard cell spread) was roughly 25 nM, the IC50 (MCF-7 cells [1]; [6]) was roughly 20 nM and the “overt toxicity to the mice” value ([4]; intraperitoneal injection, C3H mice bearing SCCVII tumor) was “no overt toxicity”. For the same molecule, the tumor cells killed ([4]; intraperitoneal, doses of about 100 μg or more per mouse, 24 hours, FIG. 5) was “about 90%”.
For `COC(=O)Nc1nc2ccc(C(=O)c3cccs3)cc2[nH]1` [nocodazole], the “number of mitotic cells as measured by microscopy” value (MCF-7 cells [2]; cells treated for 20 hours with nocodazole, untreated sample 3%) was 80% and the “difference in band intensity between treated and untreated cells (TG-3 Western blot)” value (MCF-7 cells [5]) was 27 fold.
In the case of `CC(=O)O[C@H]1C(=O)[C@@]2(C)[C@H]([C@H](OC(=O)c3ccccc3)[C@]3(O)C[C@H](OC(=O)[C@H](O)[C@@H](NC(=O)c4ccccc4)c4ccccc4)C(C)=C1C3(C)C)[C@]1(OC(C)=O)CO[C@@H]1C[C@@H]2O` [paclitaxel], the EC50 (MCF-7 cells [2]; Homo sapiens, MCF7, MCF-7 cells, 20 hours incubation, FIG. 1A, read-out: half-maximal activity, mitotic arrest measured by microscopy) is reported as 10 nM, the EC50 (MCF-7 cells [3]; Homo sapiens, MCF7, 20 hours incubation, FIG. 1B, read-out: half-maximal activity, mitotic arrest measured by ELISA) is reported as 4 nM and the EC50 (MCF-7 cells [1]; Homo sapiens, MCF7, MCF-7 cells, FIG. 1B, read-out: half-maximal activity, mitotic arrest detected by ELICA) is reported as 1.5 nM.
